Data published in patent US12667545B2, “Lyophilized compositions of phenobarbital sodium salt” (Nivagen Pharmaceuticals, Inc., priority 2019, dated 2026).

What was measured:
[1] = X-Ray Powder Diffraction (XRPD); type: physicochemical; conditions: FIGS. 5A-5D
Protocol: X-Ray Powder Diffraction. With reference to FIGS. 5A-5D, XRPD was performed using the Rigaku Smart-Lab X-ray diffraction system configured for reflection Bragg-Brentano geometry using a line source X-ray beam. The X-ray source is a Cu Long Fine Focus tube that was operated at 40 kV and 44 mA. That source provides an incident beam profile at the sample that changes from a narrow line at high angles to a broad rectangle at low angles. Beam conditioning slits were used on the line X-ray source to ensure that the maximum beam size is less than 10 mm both along the line and normal to the line. The Bragg-Brentano geometry is a para-focusing geometry controlled by passive divergence and receiving slits with the sample itself acting as the focusing component for the optics. The inherent resolution of Bragg-Brentano geometry is governed in part by the diffractometer radius and the width of the receiving slit used. Typically, the Rigaku Smart-Lab is operated to give peak widths of 0.1° 2θ or less. The axial divergence of the X-ray beam is controlled by 5.0-degree Soller slits in both the incident and diffracted beam paths. […] The samples were analyzed from 2 to 40° 2θ using a continuous scan of 6° 2θ per minute with an effective step size of 0.02° 2θ.

[2] = cited from earlier work

## CCC1(c2ccccc2)C(=O)N=C([O-])NC1=O.[Na+] (stereo not drawn) [USP grade P API, sodium 5-ethyl-4,6-dioxo-5-phenyl-1H-pyrimidin-2-olate]
[1]
  solid form by XRPD: polymorphous

## CCC(C(=O)NC(N)=O)c1ccccc1 (stereo not drawn) [Pheneturide, phenylethylacetylurea]
[2]; Nayyar et al., 2012
  liver enzyme induction: potent liver enzyme inducer
[2]; patients treated with Pheneturide
  serum calcium and folate: low levels
